Measured values: the NIST ThermoML archive (doi:10.1021/je900596d)

Conditions: 355.18 K, Liquid, Vibrating tube method

FC(F)=C(F)C(F)(F)F [hexafluoropropene]
Conditions	mass density [kg/m3]
3539.3 kPa	945.7
3560.5 kPa	947.64
3582.1 kPa	949.46
3603.9 kPa	951.17
3625.9 kPa	953.18
3667.2 kPa	956.48
3687.7 kPa	958.15
3708.3 kPa	959.83
3730.3 kPa	961.36
3751.6 kPa	963.12
3773.4 kPa	964.61
3795.3 kPa	966.25
3807.5 kPa	967.13
3828.9 kPa	968.54
3851.4 kPa	970.11
3873.7 kPa	971.7
3916.8 kPa	974.54
3938.9 kPa	976.09
3959.3 kPa	977.28
3981 kPa	978.83
4015.2 kPa	980.9
4033.6 kPa	981.94
4071.4 kPa	984.1
4091.9 kPa	985.37
4110.7 kPa	986.72
4129.8 kPa	987.54
4149.4 kPa	988.81
4167.6 kPa	989.92
4186.6 kPa	990.96
4206.8 kPa	992.1
4226.2 kPa	992.98
4244.6 kPa	994.12
4263.6 kPa	995.02
4281.8 kPa	995.99
4338 kPa	998.86
4375.5 kPa	1000.94
4413 kPa	1002.73
4449.8 kPa	1004.57
4487.2 kPa	1006.43
4525 kPa	1008.13
4562.1 kPa	1009.97
4599 kPa	1011.6
4638.8 kPa	1013.65
4677.4 kPa	1015.25
4716.6 kPa	1016.92
4794.9 kPa	1020.36
4873.9 kPa	1023.7
4913.4 kPa	1025.32
4951 kPa	1026.84
4991.2 kPa	1028.51
5029.8 kPa	1029.94
5070.6 kPa	1031.42
5113 kPa	1033.05
5154.1 kPa	1034.66
5236.8 kPa	1037.65
5275.8 kPa	1039.14
5316.9 kPa	1040.61
5355.6 kPa	1041.9
5398.7 kPa	1043.42
5439.2 kPa	1044.89
5483.2 kPa	1046.3
5561 kPa	1048.84
5601.4 kPa	1050.18
5642.3 kPa	1051.53
5684.6 kPa	1052.92
5724.6 kPa	1054.21
5768.2 kPa	1055.5
5808.2 kPa	1056.73
5848.7 kPa	1058.05
5893.8 kPa	1059.3
5935.5 kPa	1060.51
5972.8 kPa	1061.59
6013.5 kPa	1062.81
6113.5 kPa	1065.75
6163.2 kPa	1067.09
6213.3 kPa	1068.54
6263.6 kPa	1069.94
6313.1 kPa	1071.25
6362.4 kPa	1072.65
6411 kPa	1074
6461.2 kPa	1075.29
6562.7 kPa	1077.95
6611.5 kPa	1079.21
6661.1 kPa	1080.53
6710.9 kPa	1081.81
6761.1 kPa	1083.05
6812.8 kPa	1084.3
6865.2 kPa	1085.67
6915.7 kPa	1086.78
6965.9 kPa	1088.01
7014.9 kPa	1089.29
7065.8 kPa	1090.44
7164.6 kPa	1092.85
7216.4 kPa	1093.92
7265.8 kPa	1095.06
7366.2 kPa	1097.33
7415.2 kPa	1098.43
7466 kPa	1099.6
7516.3 kPa	1100.77
7566.3 kPa	1101.91
7616.2 kPa	1102.85
7718.1 kPa	1105.05
7768.7 kPa	1106.11
7817.3 kPa	1107.12
7868.8 kPa	1108.17
7921.6 kPa	1109.13
7971.5 kPa	1110.3
8069.1 kPa	1112.3
8121.2 kPa	1113.23
8171.1 kPa	1114.28
8220.8 kPa	1115.22
8273.9 kPa	1116.3
8324.3 kPa	1117.22
8376.9 kPa	1118.25
8428.6 kPa	1119.32
8478.5 kPa	1120.28
8528.9 kPa	1121.22
8578.5 kPa	1122.06
8628.9 kPa	1123.04
8681.5 kPa	1124
8731.5 kPa	1124.98
8781.2 kPa	1125.78
8835.2 kPa	1126.86
8886.8 kPa	1127.78
8989.2 kPa	1129.56
9039.4 kPa	1130.46
9089.8 kPa	1131.27
9138.1 kPa	1132.17
9187.7 kPa	1132.92
9238.4 kPa	1133.87
9290.5 kPa	1134.77
9339.3 kPa	1135.6
9390.7 kPa	1136.39
9440.4 kPa	1137.24
